The results in this text go back to BindingDB's records for doi:10.1016/S0960-894X(01)80179-7 (1994).

One may read the Ki as the dissociation constant of the complex between target and ligand, obtained from inhibition or displacement. Read a high Ki as weaker binding.

This experiment concerns the target Kappa-type opioid receptor (Cavia porcellus, UniProt P41144). The experiment in a line: ChEBML_92409. The source says:
Affinity at K opioid receptor on membranes prepared from guinea pig cerebellum by [3H]- 69593 displacement.

Chain of Kappa-type opioid receptor (P41144 whole entry): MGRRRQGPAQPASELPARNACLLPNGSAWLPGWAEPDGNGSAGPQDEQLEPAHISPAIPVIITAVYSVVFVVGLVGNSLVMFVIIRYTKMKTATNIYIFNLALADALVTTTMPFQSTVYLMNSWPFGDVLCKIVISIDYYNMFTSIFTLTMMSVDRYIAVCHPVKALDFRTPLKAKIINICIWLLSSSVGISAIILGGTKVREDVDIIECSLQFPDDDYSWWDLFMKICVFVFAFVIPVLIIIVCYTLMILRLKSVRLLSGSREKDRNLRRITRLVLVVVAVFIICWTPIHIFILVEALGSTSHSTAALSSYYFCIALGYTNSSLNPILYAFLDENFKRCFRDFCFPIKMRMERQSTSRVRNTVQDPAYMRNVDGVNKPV

In turn, `CN(C(=O)C1c2ccccc2CCc2ccccc21)[C@H](CN1CC[C@H](O)C1)c1ccccc1` had a Ki of 20 nM.

Compound `Cc1ccc(C(C(=O)N(C)[C@H](CN2CC[C@H](O)C2)c2ccccc2)c2ccc(C)cc2)cc1` returned a Ki of 20 nM.

In the case of `CN(C(=O)C(c1ccccc1)c1ccccc1)[C@H](CN1CC[C@H](O)C1)c1cccc([N+](=O)[O-])c1`, the affinity, expressed as Ki, was 20 nM. That is a double-digit nanomolar value.
